We go through 22 molecules from patent US12630498B2 (Genzyme Corporation, priority 2019, dated 2026).

Experiment [1] concerns the target T1, human Cystic Fibrosis Transmembrane Conductance Regulator (CFTR) harboring the ΔF508 mutation (Homo sapiens, UniProt P13569, DEL508-508).
T1 construct: expressed in transfected cells; host or cells: H441 carcinoma line (G418-selected)
Description: H441 cell ΔF508-CFTR-HRP cell surface assay (Emax and EC50). Type of experiment: cell-based. Particulars: for Emax: NCI-H441, NA = Not active. In a few lines:
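H441 and 41o- bronchial epithelial cells expressing ΔF508-CFTR with an extracellular-loop-4 HRP tag were treated with a 15-point compound series (24.5–0.001 μM) for two nights, H441 at 27° C, 41o- at 37° C with 0.0005 mg/ml doxycycline. Surface HRP luminescence read; % of maximum VX809 signal and EC50 derived.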

For experiment [2], the target named is T2, CFTR-mediated transepithelial chloride transport in primary human bronchial epithelial cells from a ΔF508 homozygous CF donor (Homo sapiens, UniProt P13569, DEL508-508).
T2 construct: Primary human bronchial epithelial cells from a ΔF508 homozygous CF donor; host or cells: primary CF-HBE cells, ΔF508 homozygous donor
T2 sequence (P13569 with tags, fused parts or gaps DEL508-508): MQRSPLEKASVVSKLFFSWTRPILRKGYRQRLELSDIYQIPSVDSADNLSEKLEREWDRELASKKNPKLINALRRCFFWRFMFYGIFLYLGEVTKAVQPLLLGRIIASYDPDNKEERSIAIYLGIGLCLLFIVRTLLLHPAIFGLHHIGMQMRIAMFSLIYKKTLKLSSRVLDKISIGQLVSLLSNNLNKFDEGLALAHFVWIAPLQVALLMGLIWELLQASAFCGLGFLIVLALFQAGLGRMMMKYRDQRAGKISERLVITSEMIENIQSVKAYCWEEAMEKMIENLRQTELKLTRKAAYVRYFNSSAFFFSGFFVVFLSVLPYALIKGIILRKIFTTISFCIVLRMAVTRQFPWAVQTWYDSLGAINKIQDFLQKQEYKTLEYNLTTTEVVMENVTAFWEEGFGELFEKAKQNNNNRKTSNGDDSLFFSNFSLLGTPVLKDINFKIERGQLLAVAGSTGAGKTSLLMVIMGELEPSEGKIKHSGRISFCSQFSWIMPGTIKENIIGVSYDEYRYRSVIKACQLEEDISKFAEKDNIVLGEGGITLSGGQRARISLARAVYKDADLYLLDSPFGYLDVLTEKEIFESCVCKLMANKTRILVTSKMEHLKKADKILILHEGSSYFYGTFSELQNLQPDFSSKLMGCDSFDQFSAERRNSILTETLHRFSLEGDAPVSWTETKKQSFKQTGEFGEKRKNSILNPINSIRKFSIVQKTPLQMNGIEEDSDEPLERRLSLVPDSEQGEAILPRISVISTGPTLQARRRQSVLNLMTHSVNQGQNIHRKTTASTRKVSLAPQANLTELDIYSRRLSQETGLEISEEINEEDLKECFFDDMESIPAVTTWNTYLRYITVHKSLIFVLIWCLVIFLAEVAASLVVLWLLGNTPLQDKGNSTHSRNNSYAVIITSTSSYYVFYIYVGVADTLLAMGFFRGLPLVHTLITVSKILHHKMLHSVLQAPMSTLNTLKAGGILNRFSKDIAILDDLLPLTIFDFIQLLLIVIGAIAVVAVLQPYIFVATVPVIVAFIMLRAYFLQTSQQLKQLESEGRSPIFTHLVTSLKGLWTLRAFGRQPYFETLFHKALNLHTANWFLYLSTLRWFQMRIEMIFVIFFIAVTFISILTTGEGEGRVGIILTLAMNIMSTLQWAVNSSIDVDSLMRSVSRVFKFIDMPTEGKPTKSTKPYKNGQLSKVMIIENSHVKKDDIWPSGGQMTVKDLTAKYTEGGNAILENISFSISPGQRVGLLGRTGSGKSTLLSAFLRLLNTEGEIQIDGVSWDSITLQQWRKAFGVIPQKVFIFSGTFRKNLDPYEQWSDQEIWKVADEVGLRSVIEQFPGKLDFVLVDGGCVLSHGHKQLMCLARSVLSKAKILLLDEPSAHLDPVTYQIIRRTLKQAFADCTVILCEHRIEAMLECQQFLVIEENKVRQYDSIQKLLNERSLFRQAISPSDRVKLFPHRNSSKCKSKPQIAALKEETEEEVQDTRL
Description: TECC24 recording of CFTR-mediated transepithelial chloride transport in CF-HBE cells (AUC fold over DMSO). Type of experiment: cell-based. Particulars: test agent 10 μM, 48 hours incubation, AUC of forskolin-stimulated IEQ relative to DMSO. In a few lines: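 Equivalent Cl⁻ current was derived from transepithelial voltage and resistance, and its AUC from forskolin (10 μM) to CFTRinh-172 (20 μM) was divided by the DMSO AUC. Benzamil 10 μM blocked ENaC. Cells were ΔF508-homozygous primary bronchial epithelia pretreated 48 h at 36.5 °C in IL-13 medium.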

T1 sequence (P13569 with tags, fused parts or gaps DEL508-508): as above

With `CC(C)(C)[C@H](NC(=O)c1ccc2ccc(Br)cc2c1OCc1ccc(C(F)(F)F)cc1)C(=O)O` [Example 256, (2S)-2-[[7-bromo-1-[[4-(trifluoromethyl)phenyl]methoxy]naphthalene-2-carbonyl]amino]-3,3-dimethyl-butanoic Acid], in experiment [1], the EC50 is 100 nM and the Emax was 296%. Further, the “TECC24 AUC fold over DMSO @10 μM” value in experiment [2] was “A (“A” refers to AUC @10 uM >6)”.
In the same order, the values of `C[C@@H](OC(C)(C)C)C(NC(=O)c1ccc2ccccc2c1OCc1ccc(C(F)(F)F)cc1)C(=O)O` (stereo partly drawn) [Example 133, (3R)-3-(tert-butoxy)-2-(1-((4-(trifluoromethyl)benzyl)oxy)-2-naphthamido)butanoic Acid] are 1200 nM, 151% and “A (“A” refers to AUC @10 uM >6)”.
In the same order, the values of `O=C(NC(C(=O)O)C1(C(F)(F)F)CC1)c1ccc2ccc(F)cc2c1OCc1ccc(OC(F)(F)F)cc1` (stereo not drawn) [Example 240, 2-(7-fluoro-1-((4-(trifluoromethoxy)benzyl)oxy)-2-naphthamido)-2-(1-(trifluoromethyl)cyclopropyl)acetic Acid] are 800 nM, 122% and “C (“C” refers to AUC @10 uM <4)”.
As for `CC1(C(NC(=O)c2ccc3ccccc3c2OCc2ccc(SC(F)(F)F)cc2)C(=O)O)CCCCC1` (stereo not drawn) [Example 36, 2-(1-methylcyclohexyl)-2-(1-((4-((trifluoromethyl)thio)benzyl)oxy)-2-naphthamido)acetic Acid], in experiment [1], the response was half-maximal at 700 nM (EC50) and the Emax turned out to be 133%. Further, the “TECC24 AUC fold over DMSO @10 μM” value in experiment [2] is on record as “B (“B” refers to AUC @10 uM between 4-6)”.
On the same counts, the results for `CCCC(C)(CC)[C@H](NC(=O)c1ccc2ccc(F)cc2c1OCc1ccc(C(F)(F)F)cc1)C(=O)O` (stereo partly drawn) [Example 291, (2S)-3-ethyl-2-(7-fluoro-1-((4-(trifluoromethyl)benzyl)oxy)-2-naphthamido)-3-methylhexanoic Acid] are 400 nM, 260% and “A (“A” refers to AUC @10 uM >6)”.
In the same order, the values of `CC(C)(S[C@@H]1C[C@@H]2CC[C@H]1C2)[C@H](NC(=O)c1ccc2ccccc2c1OCc1ccc(C(F)(F)F)cc1)C(=O)O` [Example 173, (R)-3-(((1S,2R,4R)-bicyclo[2.2.1]heptan-2-yl)thio)-3-methyl-2-(1-((4-(trifluoromethyl)benzyl)oxy)-2-naphthamido)butanoic Acid] are 700 nM, 164% and “B (“B” refers to AUC @10 uM between 4-6)”.
On the same counts, the results for `CC(C)(c1ccccc1)[C@H](NC(=O)c1ccc2ccccc2c1OCc1ccc(C(F)(F)F)cc1)C(=O)O` [Example 9, (S)-3-methyl-3-phenyl-2-(1-((4-(trifluoromethyl)benzyl)oxy)-2-naphthamido)butanoic Acid] are 1100 nM, 88.4% and “C (“C” refers to AUC @10 uM <4)”.
In experiment [1], `CC1([C@H](NC(=O)c2ccc3cc(F)ccc3c2OCc2ccc(C(F)(F)F)cc2)C(=O)O)CCCCC1` [Example 40, (S)-2-(6-fluoro-1-((4-(trifluoromethyl)benzyl)oxy)-2-naphthamido)-2-(1-methylcyclohexyl)acetic Acid] displayed an EC50 of 300 nM and an Emax of 100%. In addition, the “TECC24 AUC fold over DMSO @10 μM” value in experiment [2] is on record as “C (“C” refers to AUC @10 uM <4)”.
In experiment [1], `CC(C)(SCC1CC1(F)F)[C@H](NC(=O)c1ccc2cc(F)ccc2c1OCc1ccc(SC(F)(F)F)cc1)C(=O)O` (stereo partly drawn) [Example 167, (2R)-3-(((2,2-difluorocyclopropyl)methyl)thio)-2-(6-fluoro-1-((4-((trifluoromethyl)thio)benzyl)oxy)-2-naphthamido)-3-methylbutanoic Acid] returned an EC50 of 1200 nM and an Emax of 63.5%. Also, the “TECC24 AUC fold over DMSO @10 μM” value in experiment [2] is given as “C (“C” refers to AUC @10 uM <4)”.
On the same counts, the results for `CCC(C)(C)[C@H](NC(=O)c1ccc2ccc(Cl)cc2c1OCc1ccc(OC(F)(F)F)cc1)C(=O)O` [Example 277, (S)-2-(7-chloro-1-((4-(trifluoromethoxy)benzyl)oxy)-2-naphthamido)-3,3-dimethylpentanoic Acid] are 100 nM, 186% and “A (“A” refers to AUC @10 uM >6)”.
In the same order, the values of `Cc1ccc2ccc(C(=O)N[C@H](C(=O)O)C(C)(C)CF)c(OCC3CCCCC3)c2c1` [Example 282, (S)-2-(1-(cyclohexylmethoxy)-7-methyl-2-naphthamido)-4-fluoro-3,3-dimethylbutanoic Acid] are 700 nM, 285% and “A (“A” refers to AUC @10 uM >6)”.
On the same counts, the results for `O=C(N[C@@H](Cc1ccc(C(F)(F)F)cc1)C(=O)O)c1ccc2ccccc2c1OCc1ccc(C(F)(F)F)cc1` [Example 104, (S)-2-(1-((4-(trifluoromethyl)benzyl)oxy)-2-naphthamido)-3-(4-(trifluoromethyl)phenyl)propanoic Acid] are 7700 nM, 77.8% and “C (“C” refers to AUC @10 uM <4)”.
In the case of `CC(C)(C)[C@H](NC(=O)c1ccc2ccccc2c1OC[C@H]1CC[C@H](C(F)(F)F)CC1)C(=O)O` [Example 222, (2S)-3,3-dimethyl-2-[[1-[[4-(trifluoromethyl)cyclohexyl]methoxy]naphthalene-2-carbonyl]amino]butanoic Acid], in experiment [1], the EC50 stood at 2900 nM and the Emax stood at 154%. The “TECC24 AUC fold over DMSO @10 μM” value in experiment [2] is reported as “A (“A” refers to AUC @10 uM >6)”.
Regarding `O=C(N[C@@H](Cc1ccc(C(F)(F)F)cc1)C(=O)O)c1ccc2cc(F)ccc2c1OCc1ccc(C(F)(F)F)cc1` [Example 197, (S)-2-(6-fluoro-1-((4-(trifluoromethyl)benzyl)oxy)-2-naphthamido)-3-(4-(trifluoromethyl)phenyl)propanoic Acid], in experiment [1], the midpoint of the response, the EC50, lay at 11500 nM and the maximal effect (Emax) was found to be 80.8%. For the same molecule, the “TECC24 AUC fold over DMSO @10 μM” value in experiment [2] was “B (“B” refers to AUC @10 uM between 4-6)”.
On the same counts, the results for `CCC(C)(C)[C@H](NC(=O)c1ccc2ccc(OC)cc2c1OCc1ccc(C(F)(F)F)cc1)C(=O)O` [Example 309, (S)-2-(7-methoxy-1-((4-(trifluoromethyl)benzyl)oxy)-2-naphthamido)-3,3-dimethylpentanoic Acid] are 300 nM, 349% and “A (“A” refers to AUC @10 uM >6)”.
In the same order, the values of `O=C(N[C@H](C(=O)O)c1cccc2ccccc12)c1ccc2ccccc2c1OCc1ccc(C(F)(F)F)cc1` [Example 142, (S)-2-(naphthalen-1-yl)-2-(1-((4-(trifluoromethyl)benzyl)oxy)-2-naphthamido)acetic Acid] are 2200 nM, 86.9% and “C (“C” refers to AUC @10 uM <4)”.
With `CC(C)(C)[C@H](NC(=O)c1ccc2cc(F)ccc2c1OCc1nc2ccccc2s1)C(=O)O` [Example 61, (S)-2-(1-(benzo[d]thiazol-2-ylmethoxy)-6-fluoro-2-naphthamido)-3,3-dimethylbutanoic Acid], in experiment [1], the response was half-maximal at 2700 nM (EC50) and the Emax was found to be 132%. The “TECC24 AUC fold over DMSO @10 μM” value in experiment [2] is on record as “C (“C” refers to AUC @10 uM <4)”.
As for `CC(C)(SC1CCCC1)[C@H](NC(=O)c1ccc2cc(F)ccc2c1OCc1ccc(SC(F)(F)F)cc1)C(=O)O` [Example 172], in experiment [1], the EC50 is 500 nM and the maximal response (Emax) amounted to 62.7%. Further, the “TECC24 AUC fold over DMSO @10 μM” value in experiment [2] is “C (“C” refers to AUC @10 uM <4)”.
In experiment [1], `O=C(N[C@H](C(=O)O)C1CCCC1)c1ccc2cc(F)ccc2c1OCc1ccc(SC(F)(F)F)cc1` [Example 116, (S)-2-cyclopentyl-2-(6-fluoro-1-((4-((trifluoromethyl)thio)benzyl)oxy)-2-naphthamido)acetic Acid] gave an EC50 of 1200 nM and an Emax of 51.4%. Besides, the “TECC24 AUC fold over DMSO @10 μM” value in experiment [2] was “C (“C” refers to AUC @10 uM <4)”.
On the same counts, the results for `CCCC(C)(CC)[C@H](NC(=O)c1ccc2ccc(Cl)cc2c1OCc1ccc(OC(F)(F)F)cc1)C(=O)O` (stereo partly drawn) [Example 251, (2S)-2-[[7-chloro-1-[[4-(trifluoromethoxy)phenyl]methoxy]naphthalene-2-carbonyl]amino]-3-ethyl-3-methyl-hexanoic Acid] are 100 nM, 267% and “A (“A” refers to AUC @10 uM >6)”.
In the same order, the values of `CC(C)(C)C[C@H](NC(=O)c1ccc2cc(F)ccc2c1OCc1nc2ccccc2s1)C(=O)O` [Example 218, (S)-2-(1-(benzo[d]thiazol-2-ylmethoxy)-6-fluoro-2-naphthamido)-4,4-dimethylpentanoic Acid] are 4800 nM, 86.8% and “C (“C” refers to AUC @10 uM <4)”.
On the same counts, the results for `CC(C)(C)[C@H](NC(=O)c1ccc2ccccc2c1OC[C@H]1CC[C@@H](C(F)(F)F)CC1)C(=O)O` [Example 26, (S)-3,3-dimethyl-2-(1-(((1s,4R)-4-(trifluoromethyl)cyclohexyl)methoxy)-2-naphthamido)butanoic Acid] are 4600 nM, 98.8% and “C (“C” refers to AUC @10 uM <4)”.
